# Values quoted from earlier work as cited in US6607711B2, “Mouth hygienic composition for the treatment of halitosis” (priority 1997, dated 2003).
# Settings: amount in grams of the compound which can be dissolved per gram solvent (H2O)
compound,measurement,value
[Cl-].[Cl-].[Zn+2] [Zinc chloride],Solubility (g/g H2O),4.3 g/g H2O
